The results in this text go back to US6858646B2, “Neuroprotective composition and uses thereof” (Universite du Quebec a Montreal, priority 1999, dated 2005).

Data set [1] relates to P19 neurons. It counts as cell-based. The settings on record: for Protection against oxidative stress caused by hydrogen peroxide: assayed at 0.5× suboptimal concentration, 0 to 10 mM H2O2, 30 min. The procedure: Culture and neuronal differentiation of P19 embryonal carcinoma cells were done according to the procedures of Jeannotte et al. (1997) with the following modifications for microscale adaptation of cultures to 96-well plates: cell aggregates obtained at day 4 of the treatment of P19 cells with retinoic acid were trypsinized with 0.025% trypsin-1 mM EDTA in PBS and subjected to mechanical passages to obtain individual cells which were seeded in gelatin-precoated microwells at a density of 0.7-1×10^5 cells per well. The newly seeded cells (neurons) were cultured in supplemented Neurobasal medium (Neurobasal® containing 0.5 mM L-glutamine and 0.5% B27 supplement) until exposure to oxidative conditions at day 7. Because this defined serum-free medium sustains growth of P19 neurons (Yao et al., 1995) but discourages the proliferation of fibroblasts, another cell derivative of the differentiation of P19 cells with retinoic acid (McBurney, 1993; Jeannotte et al., 1997), the cell populations in microwells were composed mostly of neurons (≦95%).
The prooxidant systems tested with P19 neurons were XA/XAO, H2O2, and H2O2/Fe^+2. Before neurons were exposed to either one of these systems, they were carefully washed with PBS and then incubated at 37° C., in an atmosphere of 95% ambient air and 5% CO2, and in the specific conditions of each system, as follows: i) from 0 to 90 min in the presence of PBS containing 500 μM XA and 50 mU/ml XAO, with the enzyme added last to start the reaction; ii) for 30 min in the presence of PBS containing 0 to 10 mM H2O2 with peroxide added last; and iii) for 30 min in the presence of PBS containing 0 to 10 mM H2O2 plus 50 μM FeCl2, with peroxide added last. Conditions were initially taken from Cini et al. (1994) for XA/XAO, from Desagher et al. (1996) for H2O2, and from Takemura et al. (1994) for H2O2/Fe^+2 systems respectively, and adapted to produce dose- or time-dependent cell mortality in P19 neurons. The first studies done with the H2O2/Fe^2+ system included the addition of 500 μM ascorbic acid; however, since responses of P19 neurons were similar whether or not ascorbic acid was present, this vitamin was omitted in subsequent experiments.
When TRIAD or its components were tested for their antioxidant action, they were administered to cells just prior the addition of XAO or H2O2. After incubation of cells under oxidative conditions, the prooxidant medium was removed and replaced with 200 μl of supplemented Neurobasal-minus AO (Neurobasal® containing L-glutamine and the B27-minus AO supplement). B27-minus AO is a version of B27 supplement sold by Gibco-BRL from which normally present antioxidants (AO=vitamin E, catalase, SOD and GSH) have been removed. Cells were incubated in this Neurobasal-minus AO medium for 16 h, at 37° C., 5% CO2, and for a further 7 h in the same medium but in the presence of Alamar Blue for viability measurement.
(§1) Fifteen (15) μl Alamar Blue was added to the culture medium of each well (200 μl) and incubation resumed for 7 h at 37° C., 5% CO2. A 180-μl aliquot of each culture medium was read by fluorescence using a wavelength of 544 nm for excitation and of 590 nm for emission; fluorescence increases upon reduction of the dye by metabolic activity of viable cells. Fluorescence determinations were done with a fluorimeter adapted to read microplates. Viability is reported as %, comparing the fluorescence units obtained for cells exposed to oxidative conditions to those of control (non-exposed) cells.

Data set [2] relates to P19 neurons. The experiment in a line: Protection of P19 neurons exposed to XA/XAO mediated oxidative stress (Alamar Blue viability). It counts as cell-based. The settings on record: 1× concentration. The protocol: Culture and neuronal differentiation of P19 embryonal carcinoma cells were done according to the procedures of Jeannotte et al. (1997) with the following modifications for microscale adaptation of cultures to 96-well plates: cell aggregates obtained at day 4 of the treatment of P19 cells with retinoic acid were trypsinized with 0.025% trypsin-1 mM EDTA in PBS and subjected to mechanical passages to obtain individual cells which were seeded in gelatin-precoated microwells at a density of 0.7-1×10^5 cells per well. […]
Another protocol was also tested for XA/XAO system to generate a milder oxidative stress. […] At end of stress, PBS was changed for Neurobasal-minus AO medium and cells were incubated for 7 h, readily in the presence of Alamar Blue, for viability measurement.
as §1

Data set [3] can be described thus: In vitro antioxidant capacity: inhibition of DPD oxidation by H2O2, in absence of cells. The procedure:
Oxidation of N,N-diethyl-p-phenylenediamine (DPD) by a prooxidant system was used as a general reporter of the amount of ROS generated by that system (Anonymous, 1985; Chahine et al., 1991). Antioxidant capacity of preparations of TRIAD (or of its components) was defined as the ability to inhibit the oxidation of DPD by prooxidants.
To estimate the antioxidant capacity of TRIAD preparations in the prooxidant conditions used with P19 neurons, DPD was added to a final concentration of 32 mM to 200 μl of each prooxidant system described above (see section 2.4) and incubated for the times tested with the cells. At the end of incubation, the amount of oxidized DPD was determined at 560 nm using a spectrophotometer adapted to microscale measurement.

Regarding `OO` [hydrogen peroxide, reference compound], the LD50 in the data set on P19 neurons [1] (mouse, 30 min) turned out to be 0.3 mM. In the data set on P19 neurons [1] (mouse, 30 min, 1 mM), the Cell mortality result is “approximately 70%”.

As for `CC(=O)C(=O)[O-].[Na+]` [pyruvate, sodium pyruvate], the “Protection against neuronal death caused by XA/XAO” value in the data set with P19 neurons [2] (500 μM XA, 50 mU/mL XAO, 0-90 min) is listed as “protected only slightly less than TRIAD 1×”. For the same compound, the “Protective effect against XA/XAO” value with P19 neurons [2] (from 30 to 90 min of incubation with XA/XAO) was “remained stable”. For the same compound, the “Contribution to TRIAD protective effect” value in the data set with P19 neurons [1] (H2O2/Fe2+ prooxidant system) is on record as “contributed for most of TRIAD protective effect”. Moreover, the “Protection against oxidative stress caused by hydrogen peroxide” value in the data set on P19 neurons [1] was “substantial and stable protection up to 10 mM H2O2”. Further, in the data set with P19 neurons [1] (at low hydrogen peroxide concentrations), the “Share of the protective effect of TRIAD” value is reported as “half”. In addition, the “Contribution to the neuroprotective action of TRIAD against H2O2-induced injury” value with P19 neurons [1] (cultured neurons) stood at 60%. Moreover, in data set [3], the “Inhibition of the oxidation of DPD by H2O2” value was “substantial although not total antioxidant effect”.

On to `Cc1c(C)c2c(c(C)c1O)CC[C@@](C)(CCC[C@H](C)CCC[C@H](C)CCCC(C)C)O2` [vitamin E, α-tocopherol], for which, in the data set with P19 neurons [1], the “Protection against oxidative stress caused by hydrogen peroxide” value is reported as “did not provide protection”.
